Literature values as cited in patent publication EP4729530A1, “NOVEL PEPTIDE AND USE THEREOF” (Gemvax & Kael Co., Ltd., priority 2023, dated 2024).

Tests used:
[1] = read-out: cytotoxicity (GI50); cited from earlier work
tau = tau (Homo sapiens, UniProt P10636); conditions: read-out: tau aggregation inhibition range (EC50); cited from earlier work
Sequence of tau (P10636 whole entry): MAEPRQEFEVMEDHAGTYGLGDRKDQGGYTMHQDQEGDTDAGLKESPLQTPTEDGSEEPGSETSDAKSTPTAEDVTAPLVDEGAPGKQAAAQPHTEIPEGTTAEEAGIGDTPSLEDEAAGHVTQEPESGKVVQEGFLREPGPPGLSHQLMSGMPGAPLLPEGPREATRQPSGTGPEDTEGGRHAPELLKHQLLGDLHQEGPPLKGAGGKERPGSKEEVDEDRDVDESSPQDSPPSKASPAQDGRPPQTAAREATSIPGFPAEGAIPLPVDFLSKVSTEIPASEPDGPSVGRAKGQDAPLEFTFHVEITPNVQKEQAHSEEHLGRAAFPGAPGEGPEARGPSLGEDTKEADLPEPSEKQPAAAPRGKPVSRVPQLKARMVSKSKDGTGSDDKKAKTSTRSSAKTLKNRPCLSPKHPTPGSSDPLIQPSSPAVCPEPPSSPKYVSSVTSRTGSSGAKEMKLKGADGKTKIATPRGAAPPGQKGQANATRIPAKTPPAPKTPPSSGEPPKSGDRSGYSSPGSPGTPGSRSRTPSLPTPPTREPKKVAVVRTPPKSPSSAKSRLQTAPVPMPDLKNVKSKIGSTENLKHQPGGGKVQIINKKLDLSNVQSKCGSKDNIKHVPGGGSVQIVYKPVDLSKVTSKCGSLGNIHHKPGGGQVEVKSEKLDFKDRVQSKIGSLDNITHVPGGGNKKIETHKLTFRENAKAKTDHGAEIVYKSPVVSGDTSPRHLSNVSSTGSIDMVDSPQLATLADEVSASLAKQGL

For CN(C)c1ccc2c(c1)Sc1cc(N(C)C)ccc1N2 [LMTM], the GI50 [1] is listed as 6.4 ± 0.3 µM and the EC50 (tau) is listed as 2.2 ± 0.2 µM.
